These results are taken from US20140235616A1, “PYRAZOLOQUINOLINONE DERIVATIVES, PREPARATION THEREOF AND THERAPEUTIC USE THEREOF” (SANOFI, priority 2011, published 2014).

SMILES strings stand for the structures.

The target in the experiment is T1, human MetAP2 (Homo sapiens, UniProt P50579).
T1 construct: made in house; host or cells: Sf9 insect cells (baculovirus)
T1 sequence (P50579 whole entry): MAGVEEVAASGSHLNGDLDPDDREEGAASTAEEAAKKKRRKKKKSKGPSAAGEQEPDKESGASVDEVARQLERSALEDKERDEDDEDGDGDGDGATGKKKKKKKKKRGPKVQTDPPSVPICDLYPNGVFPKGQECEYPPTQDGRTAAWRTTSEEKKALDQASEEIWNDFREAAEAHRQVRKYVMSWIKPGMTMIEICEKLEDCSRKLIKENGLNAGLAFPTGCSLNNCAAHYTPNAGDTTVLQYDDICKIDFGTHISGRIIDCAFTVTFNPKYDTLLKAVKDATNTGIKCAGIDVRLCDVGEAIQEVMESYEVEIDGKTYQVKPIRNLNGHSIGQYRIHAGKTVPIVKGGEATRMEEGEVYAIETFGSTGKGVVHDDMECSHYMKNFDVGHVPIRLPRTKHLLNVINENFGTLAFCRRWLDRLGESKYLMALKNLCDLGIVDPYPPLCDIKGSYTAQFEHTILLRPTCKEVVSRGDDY
The experiment in a line: MetAP2 enzymatic screening test (isolated enzyme, Met-Pro-Arg-pNa substrate, absorbance at 405 nm). The experiment is classed as biochemical. The conditions noted are these: read-out: % inhibition hMETAP2 at 100 nM. The method, then:
The compounds according to the invention underwent biochemical studies in order to determine their capacity to inhibit the enzyme methionine-aminopeptidase2 (enzymatic test on isolated enzyme).
MetAP2 Enzymatic Screening Test
For the enzymatic test, human MetAP2 protein was obtained from a culture supernatant of insect cells (sf9) infected with MetAP2 recombinant baculovirus.
Before performing the experiment, dialysis of the MetAP2 supernatant is performed over 24 hours at 4° C. in a buffer (10 mM Hepes, 100 mM KCl, 10% glycerol, pH 7.4) in the presence of EDTA (1 mM) over the first 12 hours.
The dialysis supernatant is recovered and manganese, used as cofactor, is added to a final concentration of 300 μM.
The enzymatic test is a test in two steps.
Consequently, the second step consists in reacting the peptides cleaved in the preceding step with a second peptidase in order to release the chromophore.
With `CCc1ncncc1-c1ccc2c3[nH]ncc3c(=O)n(CC(F)(F)F)c2c1` [Compound 143, 7-(4-ethylpyrimidin-5-yl)-5-(2,2,2-trifluoroethyl)-1,5-dihydro-4H-pyrazolo[4,3-c]quinolin-4-one], the inhibition at 0.1 µM turned out to be 43%.
Regarding `Cc1ccnc(-c2ccc3c4[nH]ncc4c(=O)n(CC(F)(F)F)c3c2)c1` [Compound 187, 7-(4-methylpyrid-2-yl)-5-(2,2,2-trifluoroethyl)-1,5-dihydro-4H-pyrazolo[4,3-c]quinolin-4-one], the inhibition at 0.1 µM is 40%.
`Cc1nc(N)ccc1-c1ccc2c3[nH]ncc3c(=O)n(CC(F)(F)F)c2c1` [Compound 142, 7-(6-amino-2-methylpyrid-3-yl)-5-(2,2,2-trifluoroethyl)-1,5-dihydro-4H-pyrazolo[4,3-c]quinolin-4-one]: the inhibition at 0.1 µM came to 44%.
As to `O=c1c2cn[nH]c2c2ccc(-c3cccc(CO)n3)cc2n1CC(F)(F)F` [Compound 154, 7-(6-hydroxymethylpyrid-2-yl)-5-(2,2,2-trifluoroethyl)-1,5-dihydro-4H-pyrazolo[4,3-c]quinolin-4-one], the inhibition at 0.1 µM is 41%.
With `CCNC(=O)c1cccc(-c2ccc3c4[nH]ncc4c(=O)n(CC)c3c2)c1` [Compound 35, N-ethyl-3-(5-ethyl-4-oxo-4,5-dihydro-1H-pyrazolo[4,3-c]quinolin-7-yl)benzamide], the inhibition at 0.1 µM was found to be 62%.
With `COc1ncc(-c2ccc3c4[nH]ncc4c(=O)n(CC(F)(F)F)c3c2)c(N(C)C)n1` [Compound 149, 7-(4-dimethylamino-2-methoxypyrimidin-5-yl)-5-(2,2,2-trifluoroethyl)-1,5-dihydro-4H-pyrazolo[4,3-c]quinolin-4-one], the inhibition at 0.1 µM was 42%.
On to `CCn1c(=O)c2cn[nH]c2c2ccc(-c3cccc(C(=O)NCCOC)c3)cc21` [Compound 39, 3-(5-ethyl-4-oxo-4,5-dihydro-1H-pyrazolo[4,3-c]quinolin-7-yl)-N-(2-methoxyethyl)benzamide], for which the inhibition at 0.1 µM amounted to 60%.
Take `CCn1c(=O)c2cn[nH]c2c2ccc(-c3ccc(C(=O)N4CCOCC4)c(Cl)c3)cc21` [Compound 29, 7-[3-chloro-4-(morpholine-4-carbonyl)phenyl]-5-ethyl-1,5-dihydro-4H-pyrazolo[4,3-c]quinolin-4-one]: the inhibition at 0.1 µM was found to be 67%.
Consider `O=c1c2cn[nH]c2c2ccc(-c3ccc(CO)cn3)cc2n1CC(F)(F)F` [Compound 157, 7-(5-hydroxymethylpyrid-2-yl)-5-(2,2,2-trifluoroethyl)-1,5-dihydro-4H-pyrazolo[4,3-c]quinolin-4-one], for which the inhibition at 0.1 µM was 41%.
Regarding `Cc1cnc(F)c(-c2ccc3c4[nH]ncc4c(=O)n(CC(F)(F)F)c3c2)c1` [Compound 135, 7-(2-fluoro-5-methylpyrid-3-yl)-5-(2,2,2-trifluoroethyl)-1,5-dihydro-4H-pyrazolo[4,3-c]quinolin-4-one], the inhibition at 0.1 µM was 45%.
On to `CCn1c(=O)c2cn[nH]c2c2ccc(-c3ccc(N4CCNCC4)cc3)cc21` [Compound 10, 5-ethyl-7-(4-piperazin-1-ylphenyl)-1,5-dihydro-4H-pyrazolo[4,3-c]quinolin-4-one], for which the inhibition at 0.1 µM stood at 77%.
`CCC(=O)Nc1ccc(-c2ccc3c4[nH]ncc4c(=O)n(CC(F)(F)F)c3c2)c(C)n1` [Compound 147, N-{6-methyl-5-[4-oxo-5-(2,2,2-trifluoroethyl)-4,5-dihydro-1H-pyrazolo[4,3-c]quinolin-7-yl]pyrid-2-yl}propionamide]: the inhibition at 0.1 µM stood at 42%.
For `CCCc1ncncc1-c1ccc2c3[nH]ncc3c(=O)n(CC(F)(F)F)c2c1` [Compound 146, 7-(4-propylpyrimidin-5-yl)-5-(2,2,2-trifluoroethyl)-1,5-dihydro-4H-pyrazolo[4,3-c]quinolin-4-one], the inhibition at 0.1 µM was determined as 42%.
On to `CCn1c(=O)c2cn[nH]c2c2ccc(-c3ccc(C(=O)NCCCN(C)C)cc3)cc21` [Compound 9, N-(3-dimethylaminopropyl)-4-(5-ethyl-4-oxo-4,5-dihydro-1H-pyrazolo[4,3-c]quinolin-7-yl)benzamide], for which the inhibition at 0.1 µM was found to be 78%.
On to `O=c1c2cn[nH]c2c2ccc(-c3ccccc3-c3cnco3)cc2n1CC(F)(F)F` [Compound 148, 7-(2-oxazol-5-ylphenyl)-5-(2,2,2-trifluoroethyl)-1,5-dihydro-4H-pyrazolo[4,3-c]quinolin-4-one], for which the inhibition at 0.1 µM worked out at 42%.
Take `O=c1c2cn[nH]c2c2ccc(-c3cncnc3-c3ccccc3)cc2n1CC(F)(F)F` [Compound 160, 7-(4-phenylpyrimidin-5-yl)-5-(2,2,2-trifluoroethyl)-1,5-dihydro-4H-pyrazolo[4,3-c]quinolin-4-one]: the inhibition at 0.1 µM was 40%.
As for `O=c1c2cn[nH]c2c2ccc(-c3cc(Cl)cnc3Cl)cc2n1CC(F)(F)F` [Compound 57, 7-(2,5-dichloropyrid-3-yl)-5-(2,2,2-trifluoroethyl)-1,5-dihydro-4H-pyrazolo[4,3-c]quinolin-4-one], the inhibition at 0.1 µM stood at 38%.
For `CCn1c(=O)c2cn[nH]c2c2ccc(-c3ccc(N4CCN(C)CC4)cc3)cc21` [Compound 11, 5-ethyl-7-[4-(4-methylpiperazin-1-yl)phenyl]-1,5-dihydro-4H-pyrazolo[4,3-c]quinolin-4-one], the inhibition at 0.1 µM was found to be 76%.
For the compound `COc1cc(C)c(-c2ccc3c4[nH]ncc4c(=O)n(CC(F)(F)F)c3c2)cn1` [Compound 161, 7-(6-methoxy-4-methylpyrid-3-yl)-5-(2,2,2-trifluoroethyl)-1,5-dihydro-4H-pyrazolo[4,3-c]quinolin-4-one], the inhibition at 0.1 µM is 39%.
Under `COC(=O)Cc1ccccc1-c1ccc2c3[nH]ncc3c(=O)n(CC(F)(F)F)c2c1` [Compound 144, methyl {2-[4-oxo-5-(2,2,2-trifluoroethyl)-4,5-dihydro-1H-pyrazolo[4,3-c]quinolin-7-yl]phenyl}acetate] stands 43%; under `CCn1c(=O)c2cn[nH]c2c2ccc(-c3ccc(C(C)N(C)C)cc3)cc21` (centres unmarked) [Compound 15, 7-[4-(1-dimethylaminoethyl)phenyl]-5-ethyl-1,5-dihydro-4H-pyrazolo[4,3-c]quinolin-4-one], 74%.
Under `CCn1c(=O)c2cn[nH]c2c2ccc(-c3ccc(C(=O)N4CCN(C)CC4)cc3)cc21` [Compound 21, 5-ethyl-7-[4-(4-methylpiperazine-1-carbonyl)phenyl]-1,5-dihydro-4H-pyrazolo[4,3-c]quinolin-4-one] stands 70%.
Under `O=c1c2cn[nH]c2c2ccc(-c3cc(Cl)cnc3F)cc2n1CC(F)(F)F` [Compound 129, 7-(5-chloro-2-fluoropyrid-3-yl)-5-(2,2,2-trifluoroethyl)-1,5-dihydro-4H-pyrazolo[4,3-c]quinolin-4-one] stands 36%.
As for `O=c1c2cn[nH]c2c2ccc(-c3ccccc3Cn3cncn3)cc2n1CC(F)(F)F` [Compound 159, 7-(2-[1,2,4]triazol-1-ylmethylphenyl)-5-(2,2,2-trifluoroethyl)-1,5-dihydro-4H-pyrazolo[4,3-c]quinolin-4-one], the inhibition at 0.1 µM was determined as 40%.
`CC(=O)Nc1ncc(C)cc1-c1ccc2c3[nH]ncc3c(=O)n(CC(F)(F)F)c2c1` [Compound 130, N-{5-methyl-3-[4-oxo-5-(2,2,2-trifluoroethyl)-4,5-dihydro-1H-pyrazolo[4,3-c]quinolin-7-yl]pyrid-2-yl}acetamide]: the inhibition at 0.1 µM came out at 48%.
As for `O=C(c1ccc(-c2ccc3c4[nH]ncc4c(=O)n(CC(F)(F)F)c3c2)cn1)N1CCOCC1` [Compound 141, 7-[6-(morpholine-4-carbonyl)pyrid-3-yl]-5-(2,2,2-trifluoroethyl)-1,5-dihydro-4H-pyrazolo[4,3-c]quinolin-4-one], the inhibition at 0.1 µM is 44%.
In the case of `O=c1c2cn[nH]c2c2ccc(-c3ccccc3CCO)cc2n1CC(F)(F)F` [Compound 131, 7-[2-(2-hydroxy-ethyl)phenyl]-5-(2,2,2-trifluoroethyl)-1,5-dihydro-4H-pyrazolo[4,3-c]quinolin-4-one], the inhibition at 0.1 µM stood at 46%.
Consider `CCn1c(=O)c2cn[nH]c2c2ccc(-c3ccc(C(=O)NCCN(C)C)cc3)cc21` [Compound 13, N-(2-dimethylaminoethyl)-4-(5-ethyl-4-oxo-4,5-dihydro-1H-pyrazolo[4,3-c]quinolin-7-yl)benzamide], for which the inhibition at 0.1 µM worked out at 75%.
Consider `COc1ccnc(-c2ccc3c4[nH]ncc4c(=O)n(CC(F)(F)F)c3c2)c1` [Compound 145, 7-(4-methoxypyrid-2-yl)-5-(2,2,2-trifluoroethyl)-1,5-dihydro-4H-pyrazolo[4,3-c]quinolin-4-one], for which the inhibition at 0.1 µM came to 42%.
On to `N#Cc1cccc(-c2ccc3c4[nH]ncc4c(=O)n(CC(F)(F)F)c3c2)n1` [Compound 153, 6-[4-oxo-5-(2,2,2-trifluoroethyl)-4,5-dihydro-1H-pyrazolo[4,3-c]quinolin-7-yl]pyridine-2-carbonitrile], for which the inhibition at 0.1 µM stood at 41%.
Take `CCn1c(=O)c2cn[nH]c2c2ccc(-c3ccc4[nH]ncc4c3)cc21` [Compound 34, 5-ethyl-7-(1H-indazol-5-yl)-1,5-dihydro-4H-pyrazolo[4,3-c]quinolin-4-one]: the inhibition at 0.1 µM worked out at 62%.
As to `COC(=O)c1cccc(-c2ccc3c4[nH]ncc4c(=O)n(CC(F)(F)F)c3c2)n1` [Compound 164, methyl 6-[4-oxo-5-(2,2,2-trifluoroethyl)-4,5-dihydro-1H-pyrazolo[4,3-c]quinolin-7-yl]pyridine-2-carboxylate], the inhibition at 0.1 µM is 37%.
